Data on 3 compounds can be found in BindingDB's records for doi:10.1007/s00044-010-9377-3 (n/a, 2011).

Structures are written as SMILES.

This experiment in a line: Inhibition of rat intestinal alpha-glucosidase using p-nitrophenyl- alpha-D-glucopyranoside as substrate preincubated for 5 min before addition of substrate measured after 10 min.
In general, IC50 refers to the concentration at which inhibition is half-maximal. Low values mean greater potency in that assay, high ones weaker potency in that assay. The compound `COc1ccc(/N=C/c2cc(Br)ccc2O)cc1` yielded an IC50 of 74.1 µM.

On to `O=[N+]([O-])c1ccc(/N=C/c2ccccc2O)cc1`, for which the half-inhibitory concentration (IC50) was 22.7 µM.

As to `O=Cc1cc(Br)ccc1O` [US8614253,3-44], the concentration for half-maximal inhibition (IC50) came to 8.8 µM.
